Measurements from ChEMBL document CHEMBL5303765, “Data for DCP probe BAY-7081” (2023).

Experiments:
[1] = target: T1, Ephrin type-B receptor 1 (Homo sapiens) (UniProt P54762); assay: EPHB1 SGC Tm panel (DSF); settings: for ΔTm: Compound concentration 10.0 uM
T1 sequence (whole entry): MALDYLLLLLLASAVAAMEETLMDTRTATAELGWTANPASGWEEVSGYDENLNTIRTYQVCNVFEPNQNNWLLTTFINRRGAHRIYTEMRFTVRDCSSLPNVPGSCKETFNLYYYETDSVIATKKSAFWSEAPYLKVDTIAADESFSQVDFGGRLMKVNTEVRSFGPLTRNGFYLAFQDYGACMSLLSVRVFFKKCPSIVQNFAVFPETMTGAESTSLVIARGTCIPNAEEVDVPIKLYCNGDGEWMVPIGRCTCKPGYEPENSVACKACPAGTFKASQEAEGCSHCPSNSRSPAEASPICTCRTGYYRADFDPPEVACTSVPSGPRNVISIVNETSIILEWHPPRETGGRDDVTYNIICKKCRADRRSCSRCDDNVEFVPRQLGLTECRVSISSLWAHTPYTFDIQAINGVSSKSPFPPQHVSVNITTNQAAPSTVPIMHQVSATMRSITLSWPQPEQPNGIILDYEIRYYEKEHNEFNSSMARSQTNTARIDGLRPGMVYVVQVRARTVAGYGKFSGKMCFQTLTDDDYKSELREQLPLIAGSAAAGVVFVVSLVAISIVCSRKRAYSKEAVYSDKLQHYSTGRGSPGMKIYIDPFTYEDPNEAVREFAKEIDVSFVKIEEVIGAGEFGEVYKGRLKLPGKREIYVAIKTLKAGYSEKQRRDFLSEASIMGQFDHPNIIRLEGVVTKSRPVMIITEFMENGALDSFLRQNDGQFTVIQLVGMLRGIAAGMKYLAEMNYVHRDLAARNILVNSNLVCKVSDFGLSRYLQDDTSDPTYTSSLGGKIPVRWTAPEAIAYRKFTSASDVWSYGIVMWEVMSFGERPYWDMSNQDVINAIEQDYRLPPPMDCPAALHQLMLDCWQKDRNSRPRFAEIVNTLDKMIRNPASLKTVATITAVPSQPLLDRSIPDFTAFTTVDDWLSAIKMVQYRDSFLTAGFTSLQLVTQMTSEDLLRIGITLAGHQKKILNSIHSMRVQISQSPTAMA

[2] = target: Alpha-1D adrenergic receptor (Homo sapiens) (UniProt P25100); settings: Compound concentration 10.0 uM
Alpha-1D adrenergic receptor (Homo sapiens), sequence (P25100 whole entry): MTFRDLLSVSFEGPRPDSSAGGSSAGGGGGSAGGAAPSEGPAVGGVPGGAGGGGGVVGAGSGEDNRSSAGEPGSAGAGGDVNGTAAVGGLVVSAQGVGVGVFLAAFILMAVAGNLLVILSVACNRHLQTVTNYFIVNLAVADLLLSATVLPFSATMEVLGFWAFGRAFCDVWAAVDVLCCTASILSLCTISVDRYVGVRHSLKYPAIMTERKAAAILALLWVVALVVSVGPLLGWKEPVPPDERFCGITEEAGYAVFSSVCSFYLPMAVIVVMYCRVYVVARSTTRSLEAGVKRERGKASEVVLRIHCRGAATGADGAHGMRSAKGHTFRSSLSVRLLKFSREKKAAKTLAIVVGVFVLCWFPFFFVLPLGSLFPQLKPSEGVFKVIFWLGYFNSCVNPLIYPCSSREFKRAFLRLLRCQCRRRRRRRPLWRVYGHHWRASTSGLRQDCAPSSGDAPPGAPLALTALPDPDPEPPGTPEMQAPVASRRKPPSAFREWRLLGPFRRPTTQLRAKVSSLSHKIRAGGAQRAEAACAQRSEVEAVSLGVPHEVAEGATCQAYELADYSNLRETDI

[3] = target: T2, Calcium/calmodulin-dependent protein kinase type IV (Homo sapiens) (UniProt Q16566); assay: CAMK4 SGC Tm panel (DSF); settings: for ΔTm: Compound concentration 10.0 uM
T2 sequence (whole entry): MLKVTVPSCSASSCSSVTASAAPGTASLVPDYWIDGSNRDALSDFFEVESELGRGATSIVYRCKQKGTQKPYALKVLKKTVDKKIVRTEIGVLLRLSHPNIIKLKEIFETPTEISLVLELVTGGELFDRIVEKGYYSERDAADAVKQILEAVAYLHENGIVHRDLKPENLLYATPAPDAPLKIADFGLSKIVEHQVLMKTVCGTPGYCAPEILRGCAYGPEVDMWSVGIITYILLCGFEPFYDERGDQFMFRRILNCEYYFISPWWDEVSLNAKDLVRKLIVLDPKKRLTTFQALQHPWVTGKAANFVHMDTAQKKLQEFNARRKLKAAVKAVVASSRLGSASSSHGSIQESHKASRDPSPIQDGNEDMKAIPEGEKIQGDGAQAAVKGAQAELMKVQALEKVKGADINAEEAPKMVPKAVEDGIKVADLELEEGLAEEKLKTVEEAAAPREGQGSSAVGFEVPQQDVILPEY

[4] = target: Transcription initiation factor TFIID subunit 1 (Homo sapiens) (UniProt P21675); assay: TAF1 SGC Tm panel (DSF); settings: for ΔTm: Compound concentration 10.0 uM
Transcription initiation factor TFIID subunit 1 (Homo sapiens), sequence (P21675 whole entry): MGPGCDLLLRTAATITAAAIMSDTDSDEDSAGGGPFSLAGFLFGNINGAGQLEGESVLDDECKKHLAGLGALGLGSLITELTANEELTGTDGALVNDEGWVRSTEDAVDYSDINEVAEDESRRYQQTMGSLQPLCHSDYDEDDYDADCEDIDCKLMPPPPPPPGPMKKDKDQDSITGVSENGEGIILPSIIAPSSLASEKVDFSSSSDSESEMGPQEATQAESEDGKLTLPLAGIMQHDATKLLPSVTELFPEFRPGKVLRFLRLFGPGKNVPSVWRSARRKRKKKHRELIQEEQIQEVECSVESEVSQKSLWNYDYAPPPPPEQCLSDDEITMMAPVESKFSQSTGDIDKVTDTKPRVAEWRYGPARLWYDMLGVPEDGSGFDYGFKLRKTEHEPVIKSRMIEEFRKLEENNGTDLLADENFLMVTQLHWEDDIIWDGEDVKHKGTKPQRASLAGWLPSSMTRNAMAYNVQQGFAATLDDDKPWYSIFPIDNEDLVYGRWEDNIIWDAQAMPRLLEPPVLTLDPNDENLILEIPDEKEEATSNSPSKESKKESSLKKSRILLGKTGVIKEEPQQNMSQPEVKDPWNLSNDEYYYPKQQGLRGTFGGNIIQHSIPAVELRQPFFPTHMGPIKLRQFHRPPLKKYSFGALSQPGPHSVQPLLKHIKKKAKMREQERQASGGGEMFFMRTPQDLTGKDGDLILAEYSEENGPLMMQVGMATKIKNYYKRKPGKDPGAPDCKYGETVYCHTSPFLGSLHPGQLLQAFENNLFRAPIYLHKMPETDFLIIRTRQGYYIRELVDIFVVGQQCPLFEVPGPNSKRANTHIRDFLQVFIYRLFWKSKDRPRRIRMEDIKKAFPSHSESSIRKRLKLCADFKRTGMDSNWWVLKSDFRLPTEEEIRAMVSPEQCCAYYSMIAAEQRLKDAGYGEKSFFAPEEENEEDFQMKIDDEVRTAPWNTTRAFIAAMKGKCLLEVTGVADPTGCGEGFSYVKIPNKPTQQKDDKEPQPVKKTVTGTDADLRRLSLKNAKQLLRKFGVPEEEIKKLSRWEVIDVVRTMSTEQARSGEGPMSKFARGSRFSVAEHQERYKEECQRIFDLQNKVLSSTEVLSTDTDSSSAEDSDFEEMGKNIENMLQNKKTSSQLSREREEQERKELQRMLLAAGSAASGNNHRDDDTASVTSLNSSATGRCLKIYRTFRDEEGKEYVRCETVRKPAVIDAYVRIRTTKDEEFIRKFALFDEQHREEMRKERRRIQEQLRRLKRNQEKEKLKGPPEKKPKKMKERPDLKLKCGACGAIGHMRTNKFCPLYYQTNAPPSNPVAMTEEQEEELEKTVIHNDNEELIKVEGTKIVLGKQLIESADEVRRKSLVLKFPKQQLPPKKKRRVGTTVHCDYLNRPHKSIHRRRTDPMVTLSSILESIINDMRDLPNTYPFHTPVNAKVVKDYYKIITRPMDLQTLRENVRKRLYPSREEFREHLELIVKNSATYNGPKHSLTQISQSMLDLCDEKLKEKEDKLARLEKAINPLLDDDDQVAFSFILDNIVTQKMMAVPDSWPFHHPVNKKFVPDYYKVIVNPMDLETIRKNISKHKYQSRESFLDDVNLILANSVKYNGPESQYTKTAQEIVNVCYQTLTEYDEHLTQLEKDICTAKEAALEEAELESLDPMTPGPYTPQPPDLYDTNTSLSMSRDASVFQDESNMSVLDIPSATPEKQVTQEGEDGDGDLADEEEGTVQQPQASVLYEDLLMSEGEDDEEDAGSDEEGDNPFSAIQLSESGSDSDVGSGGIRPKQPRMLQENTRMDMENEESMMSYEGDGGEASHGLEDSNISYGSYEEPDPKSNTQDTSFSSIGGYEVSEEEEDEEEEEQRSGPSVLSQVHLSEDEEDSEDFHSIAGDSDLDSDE

[5] = target: T3, Serine/threonine-protein kinase 17B (Homo sapiens) (UniProt O94768); assay: STK17B SGC Tm panel (DSF); settings: for ΔTm: Compound concentration 10.0 uM
T3 sequence (whole entry): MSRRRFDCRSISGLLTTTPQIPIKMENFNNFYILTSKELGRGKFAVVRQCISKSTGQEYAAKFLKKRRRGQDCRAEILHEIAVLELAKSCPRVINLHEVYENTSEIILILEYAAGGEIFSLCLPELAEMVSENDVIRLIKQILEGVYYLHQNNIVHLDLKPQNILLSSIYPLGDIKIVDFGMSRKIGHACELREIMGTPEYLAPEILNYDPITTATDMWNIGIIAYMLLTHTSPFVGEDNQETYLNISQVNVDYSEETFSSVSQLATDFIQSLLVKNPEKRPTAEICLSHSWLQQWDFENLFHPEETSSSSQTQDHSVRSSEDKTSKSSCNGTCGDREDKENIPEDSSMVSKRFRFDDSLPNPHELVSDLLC

[6] = target: T4, Serine/threonine-protein kinase 17A (Homo sapiens) (UniProt Q9UEE5); assay: STK17A SGC Tm panel (DSF); settings: for ΔTm: Compound concentration 10.0 uM
T4 sequence (whole entry): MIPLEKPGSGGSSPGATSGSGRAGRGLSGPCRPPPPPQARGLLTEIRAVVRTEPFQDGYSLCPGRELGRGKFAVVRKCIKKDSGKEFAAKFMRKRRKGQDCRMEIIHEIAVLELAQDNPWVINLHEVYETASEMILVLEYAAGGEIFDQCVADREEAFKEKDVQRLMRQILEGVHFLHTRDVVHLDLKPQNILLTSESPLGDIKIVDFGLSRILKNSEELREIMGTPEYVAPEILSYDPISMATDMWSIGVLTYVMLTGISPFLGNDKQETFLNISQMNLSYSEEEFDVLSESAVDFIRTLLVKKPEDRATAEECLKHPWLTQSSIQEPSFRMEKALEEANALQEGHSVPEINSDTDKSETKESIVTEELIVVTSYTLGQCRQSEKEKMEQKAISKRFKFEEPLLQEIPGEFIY

[7] = target: STE20/SPS1-related proline-alanine-rich protein kinase (Homo sapiens) (UniProt Q9UEW8); assay: STK39 SGC Tm panel (DSF); settings: for ΔTm: Compound concentration 10.0 uM
[8] = target: Cyclin-dependent kinase 2 (Homo sapiens) (UniProt P24941); assay: CDK2 SGC Tm panel (DSF); settings: for ΔTm: Compound concentration 10.0 uM

## CCC[C@@H]1CNCc2c1[nH]c(=O)c(C#N)c2N1CCC2(CC1)CC2
[1]
  delta Tm Staurosporine positive control: 5.62
  ΔTm: 0.00973
[2]
  inhibition: -2.05%
[3]
  delta Tm Staurosporine positive control: 8.45
  ΔTm: -1.12
[4]
  delta Tm Staurosporine positive control: 0.516
  ΔTm: 0.967
[5]
  delta Tm Staurosporine positive control: 10.6
  ΔTm: -0.79
[6]
  delta Tm Staurosporine positive control: 11.8
  ΔTm: -1.01
[7]
  delta Tm Staurosporine positive control: 9.01
  ΔTm: -0.455
[8]
  delta Tm Staurosporine positive control: 14.3
  ΔTm: -0.673

## CCC[C@H]1CNCc2c1[nH]c(=O)c(C#N)c2N1CCC2(CC1)CC2
[1]
  delta Tm Staurosporine positive control: 5.62
  ΔTm: 0.0299
[2]
  inhibition: 0.14%
[3]
  delta Tm Staurosporine positive control: 8.45
  ΔTm: -0.566
[4]
  delta Tm Staurosporine positive control: 0.516
  ΔTm: 1.56
[5]
  delta Tm Staurosporine positive control: 10.6
  ΔTm: -0.858
[6]
  delta Tm Staurosporine positive control: 11.8
  ΔTm: -1.05
[7]
  delta Tm Staurosporine positive control: 9.01
  ΔTm: -0.273
[8]
  delta Tm Staurosporine positive control: 14.3
  ΔTm: -0.589
